Values of other authors as cited in patent US20070287931A1, “Methods and systems for administering an appropriate pharmacological treatment to a patient for managing epilepsy and other neurological disorders” (priority 2006, published 2007).
Like-named read-outs stand apart in the source and are kept apart here.

Columns and labels:
seizure = conditions: intranasal
[1] = intranasal
[2] = for plasma concentration per daily dose of 1 mg/kg: per daily dose of 1 mg/kg; for plasma concentration per daily dose of 1 mg/kg of primidone: per daily dose of 1 mg/kg of primidone
[3] = tested on: cultured mouse spinal cord neurons; conditions: 10-30 μg/mL
[4] = tested on: GABA/benzodiazepine receptor ionophore complex; conditions: in vitro
[5] = tested on: dopaminergic and serotonergic neurotransmission; conditions: in vivo microdialysis
rat hippocampal slices = conditions: 10-30 μg/mL
T-type Ca^2+ currents = conditions: in vitro
sodium channels = conditions: in vitro
partial seizures = conditions: controlled trials, adjunctive therapy of partial seizures in adults, oral

SMILES: Cc1ncc2n1-c1ccc(Cl)cc1C(c1ccccc1F)=NC2 [Midazolam]
- time to terminate a seizure (seizure): 30 s
- KA (absorption rate constant) [1]: 2.46 h⁻¹
- tE1/2 (elimination half-life) [1]: 3.1 h

SMILES: O=C1NC(=O)C(c2ccccc2)(c2ccccc2)N1 [Phenyloin, diphenylhydantoin]
- concentrations at which toxic effects such as nystagmus develop: around 20 μg/ml
- concentrations giving chronic control of seizures (seizures): above 10 μg/ml

SMILES: CCC1(C)CC(=O)NC1=O (stereo not drawn) [ethosuximide, Ethosuximide]
- plasma concentration per daily dose of 1 mg/kg ([2]; long-term therapy): about 2 μg/ml

SMILES: CCC1(c2ccccc2)C(=O)NC(=O)NC1=O [phenobarbital, Phenobarbital]
- plasma concentration per daily dose of 1 mg/kg ([2]; long term therapy, adults): about 10 μg/ml
- plasma concentration per daily dose of 1 mg/kg of primidone ([2]; long term therapy): about 2 μg/ml

SMILES: CCC1(c2ccccc2)C(=O)NCNC1=O [primidone, Primidone]
- plasma concentration per daily dose of 1 mg/kg of primidone ([2]; long term therapy): about 1 μg/ml

SMILES: NS(=O)(=O)Cc1noc2ccccc12 [zonisamide, 1,2-benzisoxazole-3-methanesulfonamide]
- postsynaptic GABA or glutamate responses [3]: without affecting
- synaptically-driven electrical activity [3]: suppresses synaptically-driven electrical activity
- binding to the GABA/benzodiazepine receptor ionophore complex [4]: binds to the GABA/benzodiazepine receptor ionophore complex in an allosteric fashion which does not produce changes in chloride flux
- dopaminergic and serotonergic neurotransmission [5]: facilitates both dopaminergic and serotonergic neurotransmission
- neuronal or glial uptake of [3H]-GABA (rat hippocampal slices): without affecting
- carbonic anhydrase inhibiting activity (carbonic anhydrase): weak
- effect on voltage-dependent, transient inward currents (T-type Ca2+ currents) (T-type Ca^2+ currents): reduces voltage-dependent, transient inward currents
- effect on sodium channels (sodium channels): blocks sodium channels
- effective doses (partial seizures): 100 to 600 mg/day
